Data set [1] in a line: Stability in 80% human plasma (serum). Type of data set: in vitro ADME. To be noted: 80% human serum (pH 7.4) at 37° C. As for the experimental part: The rates of the degradation of the prodrugs were determined in 80% human serum (pH 7.4) at 37° C. as an indication of the susceptibility of prodrugs to undergo bioconversion after reaching the circulation. The reactions were initiated by adding the first 10 μL of the prodrug stock solution (10 mg/mL in DMSO) to 200 μL preheated sodium phosphate buffer solution (50 mM, pH 7.4, ionic strength 0.5), and then adding 800 μL preheated human serum. The solutions were stirred at a constant temperature of 37° C. At appropriate intervals, 50 μL of samples were mixed with 150 μL of ice-cold MeOH. After immediate mixing and centrifugation (5 min at 14.000 rpm), the resulting clear supernatant was analyzed for the remaining prodrug by HPLC.

Data set [2] has as its system reconstructed human epidermis cells. Kind of data set: In vitro skin permeability (SkinEthic Episkin reconstructed human epidermis). Type of data set: in vitro ADME. To be noted: for Skin permeation, applied compound (parent or intact prodrug): receiver 15% HP-beta-CD pH 7.4. As for the experimental part:
The in vitro permeability studies were carried out in commercial reconstructed human epidermis cells (SkinEthic™ Episkin Reconstructed human epidermis). This model is composed of TR146 cells (derived from a squamous cell carcinoma of the buccal mucosa) cultivated on an inert polycarbonate filter at the air-liquid interface in a chemically defined medium. This model forms an epithelial tissue devoid of stratum corneum, resembling histologically to the mucosa of the oral cavity.
Upon receiving the cells, each insert (0.5 cm^2 or 0.33 cm^2) was placed in a plate containing 800 μL fresh medium at room temperature. The culture dishes were placed in the incubator at 37° C., 5% CO2, and saturated humidity overnight. Next day, the inserts were placed in a plate containing 800 μL 15% HP-β-cyclodextrin in H2O. CBD and CBG, and prodrugs CBDp27 and CBGp1 were dissolved in two different vehicles, 1:1:1 prop gly:water:EtOH/6% Brij 98, and 100% mineral oil. The receiver solution was 15% HP-beta-CD in phosphate buffer (pH 7.4). 400 μL the prodrugs were applied as suspensions (ca. 2 mg/ml). The plates were stirred gently at 37° C. At appropriate intervals, the receptor compartment was sampled (100 μL) and replenished with fresh […] solution each time. The samples were mixed with 100 μL of MeOH, and analyzed for drug (both the parent drug and prodrug) by HPLC-MS.
The flux-values for the rate of delivery of drugs were determined from Fick's law of diffusion.

Data set [3] in a line: Metabolic stability in human liver microsomes. To be noted: for half-life at 15 µg/mL / half-life: both sexes, human, microsomes. The format is in vitro ADME. The protocol: The prodrugs were incubated with the human liver microsomes at 37° C. as an indication of the susceptibility of prodrugs to undergo bioconversion in the liver. The reactions were initiated by adding 1.5 μL of the prodrug stock solution (10 mg/mL in DMSO) to a preheated solution consisting of 748.5 μL potassium phosphate buffer solution (20 mM, pH 7.4, ionic strength 0.5), 200 μL NADPH, and 50 μLhuman liver microsomes (mixed gender, 0.5 ml at 20 mg/mL). The solutions were stirred at a constant temperature of 37° C. At appropriate intervals, 50 μLof samples were mixed with 100 μL of ice-cold MeOH. After immediate mixing and centrifugation (5 min at 14.000 rpm), the resulting clear supernatant was analyzed for the remaining prodrug by HPLC.

For data set [4], the system named is reconstructed human oral buccal epithelium cells (SkinEthic HOE, TR146 cells). The data set can be described thus: In vitro buccal permeability (SkinEthic human oral epithelium). Type of data set: in vitro ADME. To be noted: for Buccal permeation compared with parent cannabinoid (in words): 5% ethanol suspension; for Flux compared with parent cannabinoid / Species making up the buccal flux / formation of parent cannabinoid / Flux (buccal): Table 4; for Flux compared with parent cannabinoid: buccal flux relative to parent; for Flux (buccal): suspension ca. 2 mg/ml in 5% EtOH/phosphate buffer pH 6.8, 37° C., receiver 15% HP-β-cyclodextrin. The protocol: The in vitro permeability studies were carried out in commercial reconstructed human oral buccal epithelium cells (SkinEthic™ human oral epithelium). The SkinEthic™ HOE model is composed of TR146 cells (derived from a squamous cell carcinoma of the buccal mucosa) cultivated on an inert polycarbonate filter at the air-liquid interface in a chemically defined medium. This model forms an epithelial tissue devoid of stratum corneum, resembling histologically to the mucosa of the oral cavity.
Upon receiving the cells, each insert (0.5 cm^2 or 0.33 cm^2) was placed in a plate containing 800 μL fresh medium at room temperature. The culture dishes were placed in the incubator at 37° C., 5% CO2, and saturated humidity overnight. Next day, the inserts were placed in a plate containing 800 μL 15% HP-β-cyclodextrin in H2O. The prodrugs were dissolved in 100% EtOH (5% (V/V) final conc.), and then sodium phosphate buffer solution (50 mM, pH 6.8, isotonic, 37° C.) was added (95% (V/V) final conc.). 400 μL of the prodrugs were applied as suspensions (ca. 2 mg/ml). The plates were stirred gently at 37° C. At appropriate intervals, the receptor compartment was sampled (100 μL) and replenished with fresh […] solution each time. The samples were mixed with 100 μL of MeOH, and analyzed for drug (both the parent cannabinoid and the prodrug) by HPLC-MS.
The buccal flux-values for the rate of delivery of drugs were determined from Fick's law of diffusion.

Data set [5] is described as follows: Stability in aqueous solutions (sodium phosphate buffer, 37° C.). The format is physicochemical. To be noted: for half-life: buffer, read-out: Half-life in aqueous solution (converted). As for the experimental part:
[…] The solutions of prodrugs were prepared by adding 10 μL of stock solution (10 mg/mL in DMSO) to the preheated buffer. The solutions were stirred at a constant temperature of 37° C. At appropriate intervals, 75 μL of samples were mixed with 75 μL of MeOH and analyzed for remaining prodrug by HPLC.
The pseudo-first-order rate constants (kobs) and half-lives (t1/2) for the degradation of the prodrugs were determined from the linear slopes of the plots by taking the logarithm of the remaining prodrug over time. Equations: kobs=slope/−2.303 and t1/2=ln2/kobs.

Setting [6] is: pH 7.4, Table 5, 37° C., NADPH, read-out: Half-life in human liver microsomes (single determinations) (converted).
[7] abbreviates: pH 7.4, Table 5, average of determinations, read-out: Half-life in human liver microsomes (avg.) (converted).
[8] abbreviates: Table 5, aqueous buffer pH 6.8, 37° C., single determinations.
Setting [9] is: pH 6.8, Table 5, aqueous buffer pH 6.8, 37° C., single determinations.

“Also recorded” adds a separate entry of the source. Read-outs that look alike come from different tables or passages of the source.

The half-life is the time needed for the level to fall by half in the phase considered.

Regarding `C=C(C)[C@@H]1CCC(C)=C[C@H]1c1c(O)cc(CCCCC)cc1OC(=O)NCCN(C)C` [CBDp27, (1′R,2′R)-6-hydroxy-5′-methyl-4-pentyl-2′-(prop-1-en-2-yl)-1′,2′,3′,4′-tetrahydro-[1,1′-biphenyl]-2-yl (2-(dimethylamino)ethyl)carbamate], the Half-life in serum result in data set [1] (Table 3) is listed as “stable”. Further, the “Skin permeation of prodrug relative to parent cannabinoid” value in data set [2] (mineral oil) was approximately 140 fold; in data set [2] (solvent mix), approximately 40 fold. The “Skin permeation, applied compound (parent or intact prodrug)” value in data set [2] (vehicle mineral oil) worked out at 3.28 ± 0.15 nmol/cm^2/h; in data set [2] (vehicle solvent mix (1:1:1 prop gly:water:EtOH/6% Brij 98)) it was 47.42 ± 5.23 nmol/cm^2/h. Moreover, in data set [3] (Table 3, 37° C., NADPH), the “Half-life in human liver microsomes (single determinations)” value was 3.13; 3.13 h. The half-life at 15 µg/mL in data set [3] (pH 7.4, Table 3, 37° C., NADPH, read-out: Half-life in human liver microsomes (single determinations) (converted)) is 3.13 h; in data set [3] (pH 7.4, Table 3, average of determinations, read-out: Half-life in human liver microsomes (avg.) (converted)), 3.13 h. Also, the “Buccal permeation compared with parent cannabinoid (in words)” value in data set [4] is “better than that of CBD; also recorded: superior when compared to CBD and other prodrugs”. For the same molecule, the “Species making up the buccal flux (parent vs intact prodrug)” value in data set [4] (Table 2, remark in flux cell) is “CBD + prodrug”. Also, the “Half-life in aqueous solution” value in data set [5] (Table 3, aqueous buffer pH 6.8, 37° C.) is 0.17 h; in data set [5] (Table 3, pH 3) it was “(pH 3 = stable,”; in data set [5] (Table 3, pH 4), “pH 4 = stable,”; in data set [5] (Table 3, pH 5), “pH 5 = stable,”. The half-life in data set [5] (pH 6.8, Table 3, aqueous buffer pH 6.8, 37° C.) is 0.14 h; in data set [5] (pH 7.4, Table 3, pH 7.4), 0.87 h; in data set [5] (pH 8, Table 3, pH 8), 1.09 h; in data set [5] (pH 9, Table 3, pH 9), 1.64 h.
On to `CCCCCc1cc(O)c(C/C=C(\C)CCC=C(C)C)c(OC(=O)N2CCN(C)CC2)c1` [CBGp2, (E)-2-(3,7-dimethylocta-2,6-dien-1-yl)-3-hydroxy-5-pentylphenyl 4-methylpiperazine-1-carboxylate], for which the Half-life in serum entry in data set [1] (Table 5) is recorded as “No degradation”. In data set [3] (Table 5, 37° C., NADPH), this molecule showed a Half-life in human liver microsomes (single determinations) of 1.73 h. For the same molecule, in data set [3] (setting [6]), the half-life at 15 µg/mL was 1.62 h. Besides, the half-life at 15 µg/mL in data set [3] (setting [7]) is 1.68 h. In data set [4], the “Flux compared with parent cannabinoid” value is recorded as “No improvement” and the “Flux (buccal)” value is on record as 4.45 ± 0.45 (prodrug) nmol/cm^2/h. For the same molecule, the “Species making up the buccal flux / formation of parent cannabinoid” value in data set [4] (remark in flux cell) was “NO significant formation of CBG”. In data set [5] (setting [8]), the Half-life in aqueous solution is 1.17 h. Further, in data set [5] (setting [9]), the half-life is 1.14 h.
With `CCCCCc1cc(OC(=O)N2CCN(C)CC2)c(C/C=C(\C)CCC=C(C)C)c(OC(=O)N2CCN(C)CC2)c1` [CBGp3, (E)-2-(3,7-dimethylocta-2,6-dien-1-yl)-5-pentyl-1,3-phenylene bis(4-methylpiperazine-1-carboxylate)], the Half-life in serum result in data set [1] (Table 5) is given as “No degradation”. In addition, the half-life at 15 µg/mL in data set [3] (setting [7]) was 1.9 h. In data set [4], the “Flux compared with parent cannabinoid” value is 2.6-times better and the “Flux (buccal)” value is recorded as 30.60 ± 2.02 (prodrug) nmol/cm^2/h. Further, the “Flux compared with parent cannabinoid” value in data set [4] (listed as bis-methylpiperazine carbamate prodrug of CBG) worked out at 2.6 times. Moreover, the “Species making up the buccal flux / formation of parent cannabinoid” value in data set [4] (remark in flux cell) is listed as “NO significant formation of CBGp2 or”. In data set [5] (setting [8]), the Half-life in aqueous solution came out at 0.38 h. For the same molecule, the half-life in data set [5] (setting [9]) is 0.28 h.
With `CCCCCc1cc(O)c(C/C=C(\C)CCC=C(C)C)c(OC(=O)N2CCNCC2)c1` [CBGp5, (E)-2-(3,7-dimethylocta-2,6-dien-1-yl)-3-hydroxy-5-pentylphenyl piperazine-1-carboxylate], the Half-life in serum result in data set [1] (Table 5) was “No degradation”. For the same molecule, the Half-life in human liver microsomes (single determinations) in data set [3] (Table 5, 37° C., NADPH) turned out to be 1.79 h. Besides, in data set [3] (setting [6]), the half-life at 15 µg/mL was 1.29 h. Further, the half-life at 15 µg/mL in data set [3] (setting [7]) is 1.54 h. Moreover, in data set [4], the “Flux compared with parent cannabinoid” value is reported as “No improvement” and the “Flux (buccal)” value was 10.31 ± 0.54 (prodrug) nmol/cm^2/h. For the same molecule, the “Species making up the buccal flux / formation of parent cannabinoid” value in data set [4] (remark in flux cell) is given as “NO significant formation of CBG”. In addition, the Half-life in aqueous solution in data set [5] (setting [8]) stood at 0.26 h. For the same molecule, in data set [5] (setting [9]), the half-life was 0.38 h.
`CCCCCc1cc(OC(=O)N2CCN(C)CC2)c2c(c1)OC(C)(C)[C@@H]1CCC(C)=C[C@@H]21` [THCp1, (6aR,10aR)-6,6,9-trimethyl-3-pentyl-6a,7,8,10a-tetrahydro-6H-benzo[c]chromen-1-yl 4-methylpiperazine-1-carboxylate]: the Half-life in serum result in data set [1] (Table 5) was “No degradation”. The Half-life in human liver microsomes (single determinations) in data set [3] (Table 5, 37° C., NADPH) worked out at 5.02 h. Besides, the half-life in data set [3] (setting [6]) was 2.64 h; in data set [3] (setting [7]), 3.83 h; in data set [5] (setting [9]), 0.66 h. Besides, the “Flux compared with parent cannabinoid” value in data set [4] is listed as “No improvement”. In addition, the “Species making up the buccal flux / formation of parent cannabinoid” value in data set [4] (remark in flux cell) was “NO significant formation of THC”. Moreover, the “Flux (buccal)” value in data set [4] was 19.22 ± 0.29 (prodrug) nmol/cm^2/h. Also, the Half-life in aqueous solution in data set [5] (setting [8]) worked out at 0.41 h.
Turning to `CCCCCc1cc(OC(=O)N2CCNCC2)c2c(c1)OC(C)(C)[C@@H]1CCC(C)=C[C@@H]21` [THCp3, (6aR,10aR)-6,6,9-trimethyl-3-pentyl-6a,7,8,10a-tetrahydro-6H-benzo[c]chromen-1-yl piperazine-1-carboxylate], the Half-life in serum entry in data set [1] (Table 5) is “No degradation”. Besides, the half-life in data set [3] (setting [7]) is 3.65 h. In data set [4], the “Buccal permeation compared with parent cannabinoid (in words)” value is on record as “slightly better than THC”, the “Flux compared with parent cannabinoid” value is recorded as 1.6-times better and the “Flux (buccal)” value was 31.30 ± 1.31 (prodrug) nmol/cm^2/h. Also, the “Species making up the buccal flux / formation of parent cannabinoid” value in data set [4] (remark in flux cell) is “NO significant formation of THC”. In data set [5] (setting [8]), the Half-life in aqueous solution is 1.07 h. Also, the half-life in data set [5] (setting [9]) was 0.76 h.

These data come from patent US20220339150A1, “ENDOCANNABINOID SYSTEM-TARGETING PRODRUGS AND THERAPEUTIC USES THEREOF” (priority 2021, published 2022).
